Measured values: US7196110B2, “N-substituted tricyclic 3-aminopyrazoles as inhibitors for the treatment of cell proliferative disorders” (Janssen Phamaceutica N.V., priority 2002, dated 2007)

Molecular target: T1, PDGF-receptor beta enzyme comprising the tyrosine kinase domain (Homo sapiens, UniProt P09619)
T1 construct: from amino acid 545 to 1106 of GenBank Access NO: AAA36427
Test: Inhibition of PDGF-receptor kinase activity (cell-free, PLC1 peptide, 33P Flashplate)
Type: biochemical
Settings: PDGF-R kinase activity; for inhibition at 10 µM: compound at 10 uM, read-out: Percent Inhibition @ 10 uM; for IC50: read-out: IC50
Procedure, shortened: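 Recombinant kinase domain (aa 545–1106) phosphorylated a biotinylated PLC1 peptide with 5 μM ATP plus 33P-γ-ATP, in Tris pH 8, MgCl2, Na3VO4 and 1 mM DTT, for 60 min at 30 °C. Retained 33P was counted after washing. IC50 is the concentration halving activity versus no-inhibitor reactions.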

T1 sequence (P09619 545-1106): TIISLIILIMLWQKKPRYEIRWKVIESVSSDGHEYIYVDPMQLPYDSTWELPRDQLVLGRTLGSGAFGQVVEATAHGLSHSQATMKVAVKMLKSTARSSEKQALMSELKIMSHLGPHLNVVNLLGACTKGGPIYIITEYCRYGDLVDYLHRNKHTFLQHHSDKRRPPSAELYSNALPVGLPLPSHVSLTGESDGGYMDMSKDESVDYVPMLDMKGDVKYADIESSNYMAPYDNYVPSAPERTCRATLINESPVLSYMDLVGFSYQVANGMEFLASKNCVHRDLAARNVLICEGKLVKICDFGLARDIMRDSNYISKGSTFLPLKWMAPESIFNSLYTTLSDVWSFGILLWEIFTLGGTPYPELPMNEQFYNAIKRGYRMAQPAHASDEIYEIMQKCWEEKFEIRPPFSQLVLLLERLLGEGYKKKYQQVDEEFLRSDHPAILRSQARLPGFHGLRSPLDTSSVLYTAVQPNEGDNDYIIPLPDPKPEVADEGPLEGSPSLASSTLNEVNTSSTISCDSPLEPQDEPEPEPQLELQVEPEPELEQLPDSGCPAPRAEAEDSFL

Compound | inhibition at 10 µM [%] | IC50 [nM]
Cc1ccccc1CNc1[nH]nc2c1Cc1cc(F)ccc1-2 [Compound 378, (6-Fluoro-2,4-dihydro-indeno[1,2-c]pyrazol-3-yl)-(2-methyl-benzyl)-amine] | 94.5 | 467
COc1cc2c(cc1OCC(O)CO)Cc1c-2n[nH]c1NCc1ccccc1F (stereo not drawn) [Compound 387, 3-[3-(2-Fluoro-benzylamino)-7-methoxy-2,4-dihydro-indeno[1,2-c]pyrazol-6-yloxy]-propane-1,2-diol] | 100 | 11.6
COc1cc2c(cc1OCC(O)CN1CCCC1)Cc1c-2n[nH]c1NCc1c(Cl)cccc1Cl (stereo not drawn) [Compound 390, 1-[3-(2,6-Dichloro-benzylamino)-7-methoxy-2,4-dihydro-indeno[1,2-c]pyrazol-6-yloxy]-3-pyrrolidin-1-yl-propan-2-ol] | 99 | 2.03
Clc1cccc(Nc2[nH]nc3c2Cc2c(OCCCN4CCOCC4)cccc2-3)c1 [Compound 392, (3-Chloro-phenyl)-[5-(3-morpholin-4-yl-propoxy)-2,4-dihydro-indeno[1,2-c]pyrazol-3-yl]-amine] | 80 | 153
Fc1cccc(Nc2[nH]nc3c2Cc2c(OCCCN4CCOCC4)cccc2-3)c1 [Compound 393, (3-Fluoro-phenyl)-[5-(3-morpholin-4-yl-propoxy)-2,4-dihydro-indeno[1,2-c]pyrazol-3-yl]-amine] | 94.5 | 174
CCOc1cccc(Nc2[nH]nc3c2Cc2c(OCCCN4CCOCC4)cccc2-3)c1 [Compound 394, (3-Ethoxy-phenyl)-[5-(3-morpholin-4-yl-propoxy)-2,4-dihydro-indeno[1,2-c]pyrazol-3-yl]-amine] | 91 | 329
COc1cc2c(cc1OC)-c1nn(C(=O)Nc3cccc(F)c3)c(Nc3cccc(F)c3)c1C2 [Compound 395, 3-(3-Fluoro-phenylamino)-6,7-dimethoxy-4H-indeno[1,2-c]pyrazole-2-carboxylic acid (3-fluoro-phenyl)-amide] | 88 | 686
COc1cc2c(cc1OCC(O)CN1CCCC1)Cc1c-2n[nH]c1NCc1ccccc1F (stereo not drawn) [Compound 397, 1-[3-(2-Fluoro-benzylamino)-7-methoxy-2,4-dihydro-indeno[1,2-c]pyrazol-6-yloxy]-3-pyrrolidin-1-yl-propan-2-ol] | 92 | 7.7
c1cncc(Nc2[nH]nc3c2Cc2sccc2-3)c1 [Compound 402, (5,7-Dihydro-1-thia-4,5-diaza-cyclopenta[a]pentalen-6-yl)-pyridin-3-yl-amine] | 90 | 196
Clc1cccc(Nc2[nH]nc3c2Cc2sccc2-3)c1 [Compound 403, (3-Chloro-phenyl)-(5,7-dihydro-1-thia-4,5-diaza-cyclopenta[a]pentalen-6-yl)-amine] | 96 | 85.9
Fc1ccc(Nc2[nH]nc3c2Cc2sccc2-3)cc1Cl [Compound 404, (3-Chloro-4-fluoro-phenyl)-(5,7-dihydro-1-thia-4,5-diaza-cyclopenta[a]pentalen-6-yl)-amine] | 74.5 | 1110
CCOc1cccc(Nc2[nH]nc3c2Cc2sccc2-3)c1 [Compound 405, (5,7-Dihydro-1-thia-4,5-diaza-cyclopenta[a]pentalen-6-yl)-(3-ethoxy-phenyl)-amine] | 94.5 | 63.5
COc1cc2c(cc1OC)-c1nn(C(C)=O)c(Nc3cccc(F)c3)c1C2 [Compound 406, 1-[3-(3-Fluoro-phenylamino)-6,7-dimethoxy-4H-indeno[1,2-c]pyrazol-2-yl]-ethanone] | 96 | 75
CCOC(=O)CNC(=O)n1nc2c(c1Nc1cccc(F)c1)Cc1cc(OC)c(OC)cc1-2 [Compound 407, {[3-(3-Fluoro-phenylamino)-6,7-dimethoxy-4H-indeno[1,2-c]pyrazole-2-carbonyl]-amino}-acetic acid ethyl ester] | 39 | 9880
COc1cc2c(cc1OC)-c1nn(COC(=O)C(C)(C)C)c(Nc3cccc(F)c3)c1C2 [Compound 408, 2,2-Dimethyl-propionic acid 3-(3-fluoro-phenylamino)-6,7-dimethoxy-4H-indeno[1,2-c]pyrazol-2-ylm ethyl ester] | 83 | 687
COc1cc2c(cc1OC)-c1c(c(Nc3cccc(F)c3)nn1COC(=O)C(C)(C)C)C2 [Compound 409, 2,2-Dimethyl-propionic acid 3-(3-fluoro-phenylamino)-6,7-dimethoxy-4H-indeno[1,2-c]pyrazol-1-ylm ethyl ester] | 85.5 | 108
COc1cc2c(cc1OC)-c1n[nH]c(Nc3cccc(F)c3Br)c1C2 [Compound 410, (2-Bromo-3-fluoro-phenyl)-(6,7-dimethoxy-2,4-dihydro-indeno[1,2-c]pyrazol-3-yl)-amine] | 83.5 | 1080

Compound | inhibition at 10 µM [%] | IC50 [nM]
CCOC(=O)CCNC(=O)n1nc2c(c1Nc1ccccc1)Cc1cc(OC)c(OC)cc1-2 [Compound 411, 3-[(6,7-Dimethoxy-3-phenlylamino-4H-indeno[1,2-c]pyrazole-2-carbonyl)-amino]-propionic acid ethyl ester] | 14.5 | 82.3
COC(=O)C(CC(C)C)NC(=O)n1nc2c(c1Nc1cccc(F)c1)Cc1cc(OC)c(OC)cc1-2 (stereo not drawn) [Compound 412, 2-{[3-(3-Fluoro-phenylamino)-6,7-dimethoxy-4H-indeno[1,2-c]pyrazole-2-carbonyl]-amino}-4-methyl-pentanoic acid methyl ester] | 44 | 12700
COC(=O)C(NC(=O)n1nc2c(c1Nc1cccc(F)c1)Cc1cc(OC)c(OC)cc1-2)C(C)C (stereo not drawn) [Compound 413, 2-{[3-(3-Fluoro-phenylamino)-6,7-dimethoxy-4H-indeno[1,2-c]pyrazole-2-carbonyl]-amino}-3-methyl-butyric acid methyl ester] | 71 | 1140
Fc1cccc(F)c1CNc1[nH]nc2c1Cc1c(OCCCN3CCOCC3)cccc1-2 [Compound 414, (2,6-Difluoro-benzyl)-[5-(3-morpholin-4-yl-propoxy)-2,4-dihydro-indeno[1,2-c]pyrazol-3-yl]-amine] | 80.5 | 564
Fc1ccccc1CNc1[nH]nc2c1Cc1c(OCCCN3CCOCC3)cccc1-2 [Compound 416, (2-Fluoro-benzyl)-[5-(3-morpholin-4-yl-propoxy)-2,4-dihydro-indeno[1,2-c]pyrazol-3-yl]-amine] | 72.5 | 1190
COc1cc(Nc2[nH]nc3c2Cc2c(OC)cccc2-3)cc(C(F)(F)F)c1 [Compound 417, (5-Methoxy-2,4-dihydro-indeno[1,2-c]pyrazol-3-yl)-(3-methoxy-5-trifluoromethyl-phenyl)-amine] | 27.5 | 12200
COc1cccc2c1Cc1c-2n[nH]c1Nc1cccc(S(N)(=O)=O)c1 [Compound 418, 3-(5-Methoxy-2,4-dihydro-indeno[1,2-c]pyrazol-3-ylamino)-benzenesulfonamide] | 82.5 | 892
CCC1c2cc(OC)c(OC)cc2-c2n[nH]c(Nc3cccc(F)c3)c21 (stereo not drawn) [Compound 421, (4-Ethyl-6,7-dimethoxy-2,4-dihydro-indeno[1,2-c]pyrazol-3-yl)-(3-fluoro-phenyl)-amine] | 100 | 82.2
COc1cccc2c1Cc1c-2n[nH]c1NCc1c(F)cccc1F [Compound 423, (2,6-Difluoro-benzyl)-(5-methoxy-2,4-dihydro-indeno[1,2-c]pyrazol-3-yl)-amine] | 90 | 181
COc1cc2c(cc1OC)-c1n[nH]c(NCc3cccc(Cl)c3)c1C2 [Compound 424, (3-Chloro-benzyl)-(6,7-dimethoxy-2,4-dihydro-indeno[1,2-c]pyrazol-3-yl)-amine] | 100 | 79.1
COc1cc2c(cc1F)Cc1c-2n[nH]c1NCc1ccccc1C [Compound 425, (6-Fluoro-7-methoxy-2,4-dihydro-indeno[1,2-c]pyrazol-3-yl)-(2-methyl-benzyl)-amine] | 96 | 2.3
COc1cc2c(cc1F)Cc1c-2n[nH]c1NCc1ccccc1F [Compound 426, (2-Fluoro-benzyl)-(6-fluoro-7-methoxy-2,4-dihydro-indeno[1,2-c]pyrazol-3-yl)-amine] | 97 | 241
COc1cc2c(cc1OC)-c1c(c(Nc3cccc(F)c3)nn1C(=O)c1ccccc1)C2 [Compound 427, [3-(3-Fluoro-phenylamino)-6,7-dimethoxy-4H-indeno[1,2-c]pyrazol-1-yl]-phenyl-methanone] | 80 | 1150
COC(=O)CCC(=O)n1nc(Nc2cccc(F)c2)c2c1-c1cc(OC)c(OC)cc1C2 [Compound 428, 4-[3-(3-Fluoro-phenylamino)-6,7-dimethoxy-4H-indeno[1,2-c]pyrazol-1-yl]-4-oxo-butyric acid methyl ester] | 85.5 | 432
CCOC(=O)CCC(=O)n1nc(Nc2cccc(F)c2)c2c1-c1cc(OC)c(OC)cc1C2 [Compound 429, 4-[3-(3-Fluoro-phenylamino)-6,7-dimethoxy-4H-indeno[1,2-c]pyrazol-1-yl]-4-oxo-butyric acid ethyl ester] | 72 | 671
CCC(=O)n1nc(Nc2cccc(F)c2)c2c1-c1cc(OC)c(OC)cc1C2 [Compound 430, 1-[3-(3-Fluoro-phenylamino)-6,7-dimethoxy-4H-indeno[1,2-c]pyrazol-1-yl]-propan-1-one] | 61.5 | 571
